Measurements: US6737383B1, “Herbicidal oxadiazolidines” (priority 1999, dated 2004)

What was measured:
bamyardgrass = assay: Test B flood test barnyardgrass; type: in vivo, Echinochloa crus-galli
How it was run: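 Plants were grown to the 2-leaf stage before treatment with test chemical, then held in a greenhouse for twelve to sixteen days. Injury was visually rated against untreated controls on a 0–10 scale, where 0 is no effect and 10 is complete control.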

wild oat = assay: Test B pre/postemergence wild oat; type: in vivo, Avena fatua
How it was run: (§1)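 Test chemicals in a non-phytotoxic solvent mixture with surfactant were sprayed preemergence onto planted seeds and postemergence onto plants 2 to 18 cm tall (1- to 4-leaf stage). After twelve to sixteen days in a greenhouse, injury was visually rated against untreated controls from 0 (no effect) to 10 (complete control).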

bedstraw = assay: Test B pre/postemergence bedstraw; type: in vivo, Galium aparine
How it was run: as §1

soybean = assay: Test B pre/postemergence soybean; type: in vivo, Glycine max
How it was run: as §1

[1] = Postemergence, Rate 62 g/ha, scale 0 to 10, 0 is no effect, 10 is complete control
[2] = Rate 31 g/ha, Postemergence section (flood test species), scale 0 to 10
[3] = Rate 125 g/ha, Postemergence section (flood test species), scale 0 to 10, 0 no effect, 10 complete control
[4] = flood test, listed under Postemergence, Rate 250 g/ha, scale 0 to 10, 0 no effect, 10 complete control
[5] = Postemergence, Rate 250 g/ha, scale 0 to 10, 0 no effect, 10 complete control
[6] = Preemergence, Rate 125 g/ha, scale 0 to 10 (0 no effect, 10 complete control)
[7] = Preemergence, Rate 250 g/ha, scale of 0 to 10 where 0 is no effect and 10 is complete control
[8] = Preemergence, Rate 500 g/ha, scale 0 (no effect) to 10 (complete control)
[9] = Rate 125 g/ha, Postemergence, scale 0 to 10, 0 no effect, 10 complete control
[10] = Preemergence, Rate 62 g/ha, scale 0 to 10, 0 is no effect, 10 is complete control
[11] = Rate 500 g/ha, Postemergence, 0 to 10 scale (0 no effect, 10 complete control)
[12] = Preemergence, Rate 31 g/ha, visual rating, scale 0 to 10 (0 no effect, 10 complete control)
[13] = Rate 31 g/ha, Postemergence, scale 0 to 10
[14] = Rate 500 g/ha, Postemergence section of Table B, 0 to 10 scale (0 no effect, 10 complete control)
[15] = Preemergence, Rate 62 g/ha, scale 0 to 10 (0 no effect, 10 complete control)
[16] = Rate 500 g/ha, Postemergence, scale 0 to 10, 0 no effect, 10 complete control

| SMILES | Barnyardgrass plant response rating (bamyardgrass; [1]) | Barnyardgrass plant response rating (bamyardgrass; [3]) | Barnyardgrass plant response rating (bamyardgrass; [4]) | Wild oats plant response rating (wild oat; [1]) | Wild oats plant response rating (wild oat; [5]) | Plant response rating, Wild oats (wild oat; [6]) | Plant response rating, Wild oats (wild oat; [7]) | Wild oats plant response rating (wild oat; [9]) | Bedstraw plant response rating (bedstraw; [1]) | Bedstraw plant response rating (bedstraw; [5]) | Plant response rating, Bedstraw (bedstraw; [10]) | Plant response rating, Bedstraw (bedstraw; [6]) | Plant response rating, Bedstraw (bedstraw; [7]) | Bedstraw plant response rating (bedstraw; [9]) | Soybean plant response rating (soybean; [1]) | Soybean plant response rating (soybean; [5]) | Plant response rating, Soybean (soybean; [10]) | Plant response rating, Soybean (soybean; [6]) | Plant response rating, Soybean (soybean; [7]) | Soybean plant response rating (soybean; [9]) | other results |
| --- | --- | --- | --- | --- | --- | --- | --- | --- | --- | --- | --- | --- | --- | --- | --- | --- | --- | --- | --- | --- | --- |
| CC(C)N(C(=O)n1oc(=O)n(-c2ccccc2OC(F)(F)F)c1=O)c1ccc(F)cc1 [Compound 14] | 0 | 0 | 0 | 0 | 0 | 0 | 0 | 0 | 0 | 0 | 0 | 0 | 0 | 0 | 2 | 2 | 0 | 0 | 0 | 2 | Barnyardgrass plant response rating (bamyardgrass; [2]): 0; Wild oats plant response rating (wild oat; [8]): 0; Bedstraw plant response rating (bedstraw; [8]): 4; Bedstraw plant response rating (bedstraw; [11]): 1; Soybean plant response rating (soybean; [8]): 0 |
| CC(C)N(C(=O)n1oc(=O)n(-c2ccc(F)cc2F)c1=O)c1ccc(F)cc1F [Compound 22] | 0 | 0 | 0 | 0 | 1 | 0 | 0 | 0 | 1 | 4 | 0 | 0 | 4 | 2 | 3 | 4 | 0 | 0 | 0 | 3 | Barnyardgrass plant response rating (bamyardgrass; [2]): 0; Wild oats plant response rating (wild oat; [12]): 0; Bedstraw plant response rating (bedstraw; [12]): 0; Bedstraw plant response rating (bedstraw; [13]): 0; Soybean plant response rating (soybean; [12]): 0 |
| CCN(C(=O)n1oc(=O)n(-c2ccc(F)cc2F)c1=O)C1CCCCC1 [Compound 23] | 0 | 0 | 0 | 0 | 0 | 0 | 0 | 0 | 0 | 0 | 0 | 0 | 0 | 0 | 3 | 4 | 0 | 0 | 0 | 3 | Barnyardgrass plant response rating (bamyardgrass; [2]): 0; Wild oats plant response rating (wild oat; [12]): 0; Bedstraw plant response rating (bedstraw; [12]): 0; Bedstraw plant response rating (bedstraw; [13]): 0; Soybean plant response rating (soybean; [12]): 0 |
| Cc1ccc(-n2c(=O)on(C(=O)N(c3ccc(F)cc3F)C(C)C)c2=O)c(C)c1 [Compound 24] | 0 | 0 | 0 | 0 | 0 | 0 | 0 | 0 | 2 | 8 | 0 | 0 | 0 | 3 | 3 | 3 | 0 | 0 | 0 | 3 | Barnyardgrass plant response rating (bamyardgrass; [14]): 8; Wild oats plant response rating (wild oat; [8]): 2; Bedstraw plant response rating (bedstraw; [8]): 0; Bedstraw plant response rating (bedstraw; [11]): 8; Soybean plant response rating (soybean; [8]): 2 |
| COc1ccc(-n2c(=O)on(C(=O)N(c3ccc(F)cc3)C(C)C)c2=O)c(OC)c1 [Compound 33] | 0 | 0 | 3 | 0 | 1 | 2 | 2 | 0 | 0 | 2 | 0 | 0 | 0 | 1 | 2 | 3 | 0 | 0 | 0 | 3 | Barnyardgrass plant response rating (bamyardgrass; [14]): 6; Wild oats plant response rating (wild oat; [12]): 0; Bedstraw plant response rating (bedstraw; [12]): 0; Bedstraw plant response rating (bedstraw; [13]): 0; Soybean plant response rating (soybean; [12]): 0 |
| COc1cccc(C)c1-n1c(=O)on(C(=O)N(c2ccc(F)cc2)C(C)C)c1=O [Compound 62] | 0 | 0 | 0 | 0 | 3 | 0 | 0 | 0 | 0 | 2 | – | 0 | 0 | 0 | 1 | 2 | – | 0 | 0 | 1 | Barnyardgrass plant response rating (bamyardgrass; Rate 500 g/ha, listed under Postemergence (flood test species), scale 0 to 10, 0 no effect, 10 complete control): 0; Wild oats plant response rating (wild oat; [15]): 0; Wild oats plant response rating (wild oat; [8]): 0; Wild oats plant response rating (wild oat; [16]): 3; Bedstraw plant response rating (bedstraw; [15]): 0; Bedstraw plant response rating (bedstraw; [8]): 4; Soybean plant response rating (soybean; [15]): 0; Soybean plant response rating (soybean; [8]): 0; Soybean plant response rating (soybean; [16]): 3 |
| CCN(Cc1ccccc1)C(=O)n1oc(=O)n(-c2ccccc2C)c1=O [Compound 71] | – | – | – | 0 | 0 | 0 | 0 | 0 | 0 | 0 | – | 0 | 0 | 0 | 0 | 0 | – | 0 | 0 | 0 | Barnyardgrass plant response rating (bamyardgrass; Rate 62 g/ha, headed Pre-emergence (flood test species), scale 0 to 10 (0 no effect, 10 complete control)): 0; Barnyardgrass plant response rating (bamyardgrass; Rate 125 g/ha, Pre-emergence, flood test species, scale 0 to 10 where 0 is no effect and 10 is complete control): 0; Barnyardgrass plant response rating (bamyardgrass; Rate 250 g/ha, headed Pre-emergence (flood test species), scale 0 to 10 (0 no effect, 10 complete control)): 0; Plant response rating, Barnyardgrass (bamyardgrass; Rate 500 g/ha, headed Pre-emergence (flood test species), scale 0 to 10 (0 no effect, 10 complete control)): 0; Wild oats plant response rating (wild oat; [15]): 0; Wild oats plant response rating (wild oat; [8]): 0; Wild oats plant response rating (wild oat; [16]): 0; Bedstraw plant response rating (bedstraw; [15]): 0; Bedstraw plant response rating (bedstraw; [8]): 0; Bedstraw plant response rating (bedstraw; [16]): 0; Soybean plant response rating (soybean; [15]): 0; Soybean plant response rating (soybean; [8]): 0; Soybean plant response rating (soybean; [16]): 0 |
